Reference: patent US9346815B2, “5-chloro-2-difluoromethoxyphenyl pyrazolopyrimidine compounds, compositions and methods of use thereof” (Genentech, Inc., priority 2014, dated 2016)

Experiments:
[1] = target: isolated recombinant JAK1 kinase domain (Homo sapiens (Human), UniProt P23458); experiment: JAK1 enzyme assay (Caliper LabChip, peptide phosphorylation); assay type: biochemical; conditions: isolated recombinant JAK1 kinase domain, 25 μM ATP
[2] = target: isolated recombinant JAK2 kinase domain (Homo sapiens (Human), UniProt O60674); experiment: JAK2 enzyme assay (Caliper LabChip, peptide phosphorylation); assay type: biochemical; conditions: 25 μM ATP
[3] = test system: JAK1-dependent STAT6 phosphorylation downstream of IL-13 stimulation in BEAS-2B human bronchial epithelial cells; experiment: JAK1 pathway assay in BEAS-2B cells (IL-13-pSTAT6, MSD); assay type: cell-based; conditions: read-out: IL13-pSTAT6 EC50 (uM)_BEAS-2B
Outline: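 BEAS-2B: complete growth medium, compound 1 hr at 37° C. TF-1: GM-CSF-starved overnight, serum-free OptiMEM, compound 30 min.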

Sequence of isolated recombinant JAK2 kinase domain (O60674 849-1124): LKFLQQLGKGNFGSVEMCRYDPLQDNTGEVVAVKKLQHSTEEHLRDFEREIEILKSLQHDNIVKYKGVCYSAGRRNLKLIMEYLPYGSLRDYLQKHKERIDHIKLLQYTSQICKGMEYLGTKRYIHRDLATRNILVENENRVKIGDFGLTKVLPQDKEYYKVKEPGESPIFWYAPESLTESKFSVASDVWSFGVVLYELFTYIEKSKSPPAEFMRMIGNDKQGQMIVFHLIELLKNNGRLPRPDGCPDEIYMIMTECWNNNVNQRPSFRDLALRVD
Sequence of isolated recombinant JAK1 kinase domain (P23458 875-1153): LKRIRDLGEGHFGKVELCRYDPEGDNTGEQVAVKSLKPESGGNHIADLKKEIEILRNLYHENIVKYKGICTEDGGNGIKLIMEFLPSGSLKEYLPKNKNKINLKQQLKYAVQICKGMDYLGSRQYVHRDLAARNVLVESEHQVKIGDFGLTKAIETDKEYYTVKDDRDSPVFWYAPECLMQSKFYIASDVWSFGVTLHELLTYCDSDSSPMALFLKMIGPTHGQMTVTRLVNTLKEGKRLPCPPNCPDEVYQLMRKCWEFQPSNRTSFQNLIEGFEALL

| Ki [1] | Ki [2] | SMILES | EC50 [3] |
| --- | --- | --- | --- |
| 0.5 nM | 1.45 nM | CN1CCN(C(=O)C2CCN(C(=O)Cn3cc(NC(=O)c4cnn5cccnc45)c(-c4cc(Cl)ccc4OC(F)F)n3)CC2)CC1 [Example 398, N-(3-(5-chloro-2-(difluoromethoxy)phenyl)-1-(2-(4-(4-methylpiperazine-1-carbonyl)piperidin-1-yl)-2-oxoethyl)-1H-pyrazol-4-yl)pyrazolo[1,5-a]pyrimidine-3-carboxamide] | 0.0183 µM |
| 0.9 nM | 0.39 nM | O=C(Nc1cn(CCN[C@H]2CCOC2)nc1-c1cc(Cl)ccc1OC(F)F)c1cnn2cccnc12 [Example 399, N-(3-(5-chloro-2-(difluoromethoxy)phenyl)-1-(2-((S)-tetrahydrofuran-3-ylamino)ethyl)-1H-pyrazol-4-yl)pyrazolo[1,5-a]pyrimidine-3-carboxamide] | 0.0232 µM |
| 0.58 nM | 1.73 nM | CN(C)C(=O)CN(C)C1CCN(C(=O)Cn2cc(NC(=O)c3cnn4cccnc34)c(-c3cc(Cl)ccc3OC(F)F)n2)CC1 [Example 400, N-(3-(5-chloro-2-(difluoromethoxy)phenyl)-1-(2-(4-((2-(dimethylamino)-2-oxoethyl)(methyl)amino)piperidin-1-yl)-2-oxoethyl)-1H-pyrazol-4-yl)pyrazolo[1,5-a]pyrimidine-3-carboxamide] | 0.0309 µM |
| 0.83 nM | 0.4 nM | O=C(Nc1cn(CCN[C@@H]2CCOC2)nc1-c1cc(Cl)ccc1OC(F)F)c1cnn2cccnc12 [Example 402, N-(3-(5-chloro-2-(difluoromethoxy)phenyl)-1-(2-((R)-tetrahydrofuran-3-ylamino)ethyl)-1H-pyrazol-4-yl)pyrazolo[1,5-a]pyrimidine-3-carboxamide] | 0.0187 µM |
| 1.68 nM | 0.61 nM | CN(C)CC(O)Cn1cc(NC(=O)c2cnn3cccnc23)c(-c2cc(Cl)ccc2OC(F)F)n1 (stereo not drawn) [Example 404, N-(3-(5-chloro-2-(difluoromethoxy)phenyl)-1-(3-(dimethylamino)-2-hydroxypropyl)-1H-pyrazol-4-yl)pyrazolo[1,5-a]pyrimidine-3-carboxamide] | 0.0078 µM |
| 1.73 nM | 0.68 nM | O=C(Nc1cn(CC(O)CN2CCCCC2)nc1-c1cc(Cl)ccc1OC(F)F)c1cnn2cccnc12 (stereo not drawn) [Example 405, N-(3-(5-chloro-2-(difluoromethoxy)phenyl)-1-(2-hydroxy-3-(piperidin-1-yl)propyl)-1H-pyrazol-4-yl)pyrazolo[1,5-a]pyrimidine-3-carboxamide] | 0.0257 µM |
| 0.46 nM | 0.99 nM | N#CCCN1CCN(C(=O)Cn2cc(NC(=O)c3cnn4cccnc34)c(-c3cc(Cl)ccc3OC(F)F)n2)CC1 [Example 406, N-(3-(5-chloro-2-(difluoromethoxy)phenyl)-1-(2-(4-(2-cyanoethyl)piperazin-1-yl)-2-oxoethyl)-1H-pyrazol-4-yl)pyrazolo[1,5-a]pyrimidine-3-carboxamide] | 0.0333 µM |
| 0.36 nM | 0.71 nM | O=C1CN(C2CCN(C(=O)Cn3cc(NC(=O)c4cnn5cccnc45)c(-c4cc(Cl)ccc4OC(F)F)n3)CC2)CCN1 [Example 407, N-(3-(5-chloro-2-(difluoromethoxy)phenyl)-1-(2-oxo-2-(4-(3-oxopiperazin-1-yl)piperidin-1-yl)ethyl)-1H-pyrazol-4-yl)pyrazolo[1,5-a]pyrimidine-3-carboxamide] | 0.172 µM |
| 0.59 nM | 2.29 nM | O=C(Nc1cn(CC(=O)N2CCC(C(=O)N3CCNCC3)CC2)nc1-c1cc(Cl)ccc1OC(F)F)c1cnn2cccnc12 [Example 408, N-(3-(5-chloro-2-(difluoromethoxy)phenyl)-1-(2-oxo-2-(4-(piperazine-1-carbonyl)piperidin-1-yl)ethyl)-1H-pyrazol-4-yl)pyrazolo[1,5-a]pyrimidine-3-carboxamide] | 0.121 µM |
| 0.6 nM | 1.25 nM | CC1(N2CCOCC2)CCN(C(=O)Cn2cc(NC(=O)c3cnn4cccnc34)c(-c3cc(Cl)ccc3OC(F)F)n2)CC1 [Example 410, N-(3-(5-chloro-2-(difluoromethoxy)phenyl)-1-(2-(4-methyl-4-morpholinopiperidin-1-yl)-2-oxoethyl)-1H-pyrazol-4-yl)pyrazolo[1,5-a]pyrimidine-3-carboxamide] | 0.0183 µM |
| 1.7 nM | 0.43 nM | CN(C)CC(=O)Cn1cc(NC(=O)c2cnn3cccnc23)c(-c2cc(Cl)ccc2OC(F)F)n1 [Example 411, N-(3-(5-chloro-2-(difluoromethoxy)phenyl)-1-(3-(dimethylamino)-2-oxopropyl)-1H-pyrazol-4-yl)pyrazolo[1,5-a]pyrimidine-3-carboxamide] | 0.0228 µM |
| 0.25 nM | 0.74 nM | CC(C#N)CN(C)C1CCN(C(=O)Cn2cc(NC(=O)c3cnn4cccnc34)c(-c3cc(Cl)ccc3OC(F)F)n2)CC1 (stereo not drawn) [Example 413, N-(3-(5-chloro-2-(difluoromethoxy)phenyl)-1-(2-(4-((2-cyanopropyl) (methyl)amino)piperidin-1-yl)-2-oxoethyl)-1H-pyrazol-4-yl)pyrazolo[1,5-a]pyrimidine-3-carboxamide] | 0.0209 µM |
| 2.99 nM | 2.09 nM | CN1CCC(=CCn2cc(NC(=O)c3cnn4cccnc34)c(-c3cc(Cl)ccc3OC(F)F)n2)CC1 [Example 415, N-(3-(5-chloro-2-(difluoromethoxy)phenyl)-1-(2-(1-methylpiperidin-4-ylidene)ethyl)-1H-pyrazol-4-yl)pyrazolo[1,5-a]pyrimidine-3-carboxamide] | 0.046 µM |
| 2.91 nM | 1.37 nM | O=C(Nc1cn(CCN2CCNCC2=O)nc1-c1cc(Cl)ccc1OC(F)F)c1cnn2cccnc12 [Example 417, N-(3-(5-chloro-2-(difluoromethoxy)phenyl)-1-(2-(2-oxopiperazin-1-yl)ethyl)-1H-pyrazol-4-yl)pyrazolo[1,5-a]pyrimidine-3-carboxamide] | 0.0934 µM |
| 0.41 nM | 1.06 nM | CC(C#N)CNC1CCN(C(=O)Cn2cc(NC(=O)c3cnn4cccnc34)c(-c3cc(Cl)ccc3OC(F)F)n2)CC1 (stereo not drawn) [Example 419, N-(3-(5-chloro-2-(difluoromethoxy)phenyl)-1-(2-(4-(2-cyanopropyl-amino)piperidin-1-yl)-2-oxoethyl)-1H-pyrazol-4-yl)pyrazolo[1,5-a]pyrimidine-3-carboxamide] | 0.0313 µM |
| 0.57 nM | 0.81 nM | CN(CCC#N)C1CCC(=CCn2cc(NC(=O)c3cnn4cccnc34)c(-c3cc(Cl)ccc3OC(F)F)n2)CC1 (stereo not drawn) [Example 420, N-(3-(5-chloro-2-(difluoromethoxy)phenyl)-1-(2-(4-((2-cyanoethyl)(methyl)amino)cyclohexylidene)ethyl)-1H-pyrazol-4-yl)pyrazolo[1,5-a]pyrimidine-3-carboxamide] | 0.0301 µM |
| 0.65 nM | 0.89 nM | N#CCCNC1CCC(=CCn2cc(NC(=O)c3cnn4cccnc34)c(-c3cc(Cl)ccc3OC(F)F)n2)CC1 (stereo not drawn) [Example 421, N-(3-(5-chloro-2-(difluoromethoxy)phenyl)-1-(2-(4-(2-cyanoethylamino)cyclohexylidene)ethyl)-1H-pyrazol-4-yl)pyrazolo[1,5-a]pyrimidine-3-carboxamide] | 0.0498 µM |
| 0.89 nM | 1.77 nM | NC1CCC(=CCn2cc(NC(=O)c3cnn4cccnc34)c(-c3cc(Cl)ccc3OC(F)F)n2)CC1 (stereo not drawn) [Example 422, N-(1-(2-(4-amino-cyclohexylidene)ethyl)-3-(5-chloro-2-(difluoromethoxy)phenyl)-1H-pyrazol-4-yl)pyrazolo[1,5-a]pyrimidine-3-carboxamide] | 0.061 µM |
| 0.73 nM | 2.79 nM | CN(C)C(=O)[C@@H]1CCCN1CC1CCN(C(=O)Cn2cc(NC(=O)c3cnn4cccnc34)c(-c3cc(Cl)ccc3OC(F)F)n2)CC1 [Example 423, N-(3-(5-chloro-2-(difluoromethoxy)phenyl)-1-(2-(4-(((S)-2-(dimethylcarbamoyl)pyrrolidin-1-yl)methyl)piperidin-1-yl)-2-oxoethyl)-1H-pyrazol-4-yl)pyrazolo[1,5-a]pyrimidine-3-carboxamide] | 0.0312 µM |
| 1.12 nM | 3.44 nM | CN(C)C(=O)[C@@H]1CCCN1C1CCN(C(=O)Cn2cc(NC(=O)c3cnn4cccnc34)c(-c3cc(Cl)ccc3OC(F)F)n2)CC1 [Example 424, N-(3-(5-chloro-2-(difluoromethoxy)phenyl)-1-(2-(4-((S)-2-(dimethylcarbamoyl)pyrrolidin-1-yl)piperidin-1-yl)-2-oxoethyl)-1H-pyrazol-4-yl)pyrazolo[1,5-a]pyrimidine-3-carboxamide] | 0.0987 µM |
| 0.53 nM | 1.25 nM | CNC(=O)[C@@H]1CCCN1C1CCN(C(=O)Cn2cc(NC(=O)c3cnn4cccnc34)c(-c3cc(Cl)ccc3OC(F)F)n2)CC1 [Example 426, N-(3-(5-chloro-2-(difluoromethoxy)phenyl)-1-(2-(4-((S)-2-(methyl-carbamoyl)pyrrolidin-1-yl)piperidin-1-yl)-2-oxoethyl)-1H-pyrazol-4-yl)pyrazolo[1,5-a]pyrimidine-3-carboxamide] | 0.0394 µM |
| 0.42 nM | 1.25 nM | CN(C)C(=O)CN1CCN(CC2CCN(C(=O)Cn3cc(NC(=O)c4cnn5cccnc45)c(-c4cc(Cl)ccc4OC(F)F)n3)CC2)CC1 [Example 427, N-(3-(5-chloro-2-(difluoromethoxy)phenyl)-1-(2-(4-((4-(2-(dimethylamino)-2-oxoethyl)piperazin-1-yl)methyl)piperidin-1-yl)-2-oxoethyl)-1H-pyrazol-4-yl)pyrazolo[1,5-a]pyrimidine-3-carboxamide] | 0.0224 µM |
